The values below come from patent publication US7807711B2, “Medicinal acidic cannabinoids” (priority 2004, dated 2010).

Read-outs that look alike come from different tables or passages of the source.

For one experiment, the target named is T1, recombinant human CB2 (Homo sapiens, UniProt P34972).
T1 construct: expressed in transfected cells; host or cells: Sf9 cells
The experiment in a line: Competitive receptor binding against tritium labelled CP55,940, CB2.

In a further experiment the target is T2, recombinant human CB1 (Homo sapiens, UniProt P21554).
T2 construct: expressed in transfected cells; host or cells: Sf9 cells
T2 sequence (P21554 whole entry): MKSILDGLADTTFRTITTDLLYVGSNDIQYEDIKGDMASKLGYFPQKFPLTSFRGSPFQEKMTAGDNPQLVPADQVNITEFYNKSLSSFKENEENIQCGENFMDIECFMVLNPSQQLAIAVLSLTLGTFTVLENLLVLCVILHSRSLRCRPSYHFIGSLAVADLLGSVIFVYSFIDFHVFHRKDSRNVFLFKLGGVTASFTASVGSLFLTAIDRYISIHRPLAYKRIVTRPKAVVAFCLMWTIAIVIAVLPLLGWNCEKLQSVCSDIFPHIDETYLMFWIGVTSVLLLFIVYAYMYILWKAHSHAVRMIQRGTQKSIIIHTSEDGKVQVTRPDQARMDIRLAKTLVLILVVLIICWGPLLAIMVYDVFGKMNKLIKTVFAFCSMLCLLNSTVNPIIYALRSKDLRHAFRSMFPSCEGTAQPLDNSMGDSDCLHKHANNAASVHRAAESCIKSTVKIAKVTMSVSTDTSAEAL
Nature of the experiment: biochemical. Type of experiment: binding.

Experiment [1] deals with Experimental Autoimmune Encephalomyelitis. Nature of the experiment: Mouse model for Experimental Autoimmune Encephalomyelitis. The experiment is classed as in vivo. The conditions noted are these: SJL mice, day 0-20. Here is the method: The effect of purified THC-acid and unheated cannabis extracts were tested in vivo in a mouse model for Experimental Autoimmune Encephalomyelitis.
Between day 0 and day 20 after onset of the disease the mice were treated daily with a specified oral dose of THC-acid or unheated extract according to the following scheme:
Group 1: vehicle (0.2 mL olive oil/day);
Group 2: 1 mg purified THC-acid in 0.2 mL olive oil/day;
Group 3: unheated cannabis extract in 0.2 mL olive oil containing 1 mg THC-acid/day.
1: mild perivascular accumulation
2: mild perivascular accumulation, multi-focal
3: perivascular accumulation, multiple cell layers, multi-focal.

The test system of experiment [2] is mRNA coding for TNF-alpha. Nature of the experiment: TNF-alpha mRNA level (RT-PCR) in PHA-stimulated PBMC. Type of experiment: cell-based. The conditions noted are these: PBMC stimulated by PHA, incubation 4 days; relative to β-actine.
In experiment [3] the test system is mRNA coding for interleukin-10 (IL-10). The experiment in a line: IL-10 mRNA level (RT-PCR) in PHA-stimulated PBMC. Type of experiment: cell-based. The conditions noted are these: PBMC stimulated by PHA, incubation 4 days; relative to β-actine.

T1 sequence (P34972 whole entry): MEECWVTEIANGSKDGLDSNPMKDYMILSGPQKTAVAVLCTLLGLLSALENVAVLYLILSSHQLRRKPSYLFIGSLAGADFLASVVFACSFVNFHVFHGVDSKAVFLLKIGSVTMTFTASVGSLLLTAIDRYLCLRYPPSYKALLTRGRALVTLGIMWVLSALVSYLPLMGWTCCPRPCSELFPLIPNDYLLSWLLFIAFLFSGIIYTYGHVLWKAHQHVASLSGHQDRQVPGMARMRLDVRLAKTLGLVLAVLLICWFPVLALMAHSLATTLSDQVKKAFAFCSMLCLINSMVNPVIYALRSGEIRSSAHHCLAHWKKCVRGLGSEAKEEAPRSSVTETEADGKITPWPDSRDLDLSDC

As for `CCCCCc1cc(O)c2c(c1)OC(C)(C)c1ccc(C)cc1-2` [CBN*, cannabinol, reference compound], the Kd – broadly, the constant that tells how readily two partners part at equilibrium – on recombinant human CB2 was 17 nM; on recombinant human CB1, 36 nM.
In the case of `CCCCCc1cc2c(c(O)c1C(=O)O)C1C=C(C)CCC1C(C)(C)O2` (centres unmarked) [THC-A, Δ^9-tetrahydrocannabinolic acid], the equilibrium dissociation constant (Kd) on recombinant human CB2 (purified components, Sf9 cells, read-out: Kd CB2) was greater than 1000 nM; at recombinant human CB1 (purified components, Sf9 cells, read-out: Kd CB1), greater than 1000 nM. Besides, the “number of inflammatory cells in the brain stem compared to vehicle” value in experiment [1] (1 mg THC-acid/day oral in olive oil, sacrificed after 42 days) is given as “reduced the number of inflammatory cells in the brain stem significantly”. In experiment [1] (1 mg THC-acid/day oral, FIG. 4), the clinical score result is on record as “improved the clinical score significantly”. Besides, the “level of the pro-inflammatory cytokine TNFα (mRNA)” value in experiment [2] is on record as “decrease”. Besides, in experiment [3], the “level of the anti-inflammatory cytokine IL-10 (mRNA)” value is listed as “increase”.
